Measurements: paper PMC6393386 (Frontiers in Pharmacology, 2019)

Assays:
[1] = target: T1, Smo (smoothened), wild type hSmo (Homo sapiens, UniProt Q99835); assay: BODIPY-cyclopamine competition in hSmo-transfected HEK293 cells (positive control); format: cell-based
T1 construct: wild type hSmo expressed in HEK293 cells

[2] = target: T1, Smo (smoothened), wild type hSmo; assay: BODIPY-cyclopamine competition in hSmo-transfected HEK293 cells (microscopy and flow cytometry); format: cell-based

T1 sequence (Q99835 28-787): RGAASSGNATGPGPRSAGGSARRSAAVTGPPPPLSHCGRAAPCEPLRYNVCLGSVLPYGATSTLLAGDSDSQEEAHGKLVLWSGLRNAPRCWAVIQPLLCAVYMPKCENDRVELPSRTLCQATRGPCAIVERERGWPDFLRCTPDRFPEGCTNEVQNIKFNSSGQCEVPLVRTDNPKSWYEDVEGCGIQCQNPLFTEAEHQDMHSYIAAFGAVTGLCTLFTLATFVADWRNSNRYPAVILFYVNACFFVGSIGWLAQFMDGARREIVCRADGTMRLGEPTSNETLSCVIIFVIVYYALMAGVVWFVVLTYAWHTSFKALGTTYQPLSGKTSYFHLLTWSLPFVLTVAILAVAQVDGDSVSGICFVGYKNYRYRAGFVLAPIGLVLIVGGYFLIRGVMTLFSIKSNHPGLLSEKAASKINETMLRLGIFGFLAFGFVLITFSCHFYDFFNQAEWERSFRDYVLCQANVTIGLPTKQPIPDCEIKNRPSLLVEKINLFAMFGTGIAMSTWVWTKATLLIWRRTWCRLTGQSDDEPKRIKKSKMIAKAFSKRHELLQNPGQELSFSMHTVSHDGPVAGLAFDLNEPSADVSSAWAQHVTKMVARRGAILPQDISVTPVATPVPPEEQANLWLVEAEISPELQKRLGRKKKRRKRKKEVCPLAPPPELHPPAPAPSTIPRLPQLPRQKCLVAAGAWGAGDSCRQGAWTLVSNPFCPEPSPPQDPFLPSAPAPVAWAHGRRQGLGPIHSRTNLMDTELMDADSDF

SMILES	BODIPY-cyclopamine competition in hSmo-transfected HEK293 cells (positive contro) [1]	BODIPY-cyclopamine competition in hSmo-transfected HEK293 cells (microscopy and) [2]
CC1=C2C[C@H]3[C@@H](CC=C4C[C@@H](O)CC[C@@]43C)[C@@H]2CC[C@]12O[C@@H]1C[C@H](C)CN[C@H]1[C@H]2C [cyclopamine]	It was similar to the positive control, cyclopamine	
Cc1c(-c2ccnn2C)nnc(N2CCC(NC(=O)c3ccc(F)cc3C(F)(F)F)CC2)c1C [L-4]		there was a dose-dependent replacement of BODIPY-cyclopamine by L-4
